Reference: patent US7897568B2, “Compositions for treatment of cancer” (priority 2006, dated 2011)
Where a SMILES comes first, the peptide text is derived from it. Where no end group is shown, it is not given here.

What was measured:
Type in all cases: cell-based
MCF7-Neo cells [1] = experiment: Microinjection of ANK peptide then nocodazole, mitotic arrest/apoptosis count; conditions: MCF7-Neo5 cells, ANK peptide microinjected, nocodazole treated; versus uninjected
Experimental: (§1) ANK peptide interference with SNCG-BubR1 association in vivo was examined in a stable breast cancer cell line MCF7 expressing SNCG (MCF7-SNCG) and a control SNCG negative cell line (MCF7-Neo). […] Significant numbers of cells survived after treatment with the ANK peptide by microinjection in both cell lines. After microinjection, cells were treated with 0.5 μM nocodazole for 24 hours and the fraction of mitotically arrested cells was counted.
(§2) MCF7-SNCG and MCF-Neo were grown to 80% confluence, split with trypsin and seeded on a 22 mm glass coverslip treated with human fibronectin ([…]) into 60 mm diameter dishes containing cell maintenance medium for 24 hours and utilized for the experiments. In initial experiments ANK peptide (5, 10 or 100 μM) was microinjected. In all further experiment to date, ANK peptide (10 μM), together with goat IgG (1 mg/ml) and fluoroscein isothiocyanate (FITC, 5 mg/ml; Molecular Probes) into the MCF7-SNCG or MCF7-Neo cells under a 40× magnification of phase contrast microscope (Carl Zeiss Inc.) using a pressure injection system (Femtojet, Eppendorf). To exclude the possibility that microinjection might affect cell cycle and proliferation, MCF7-Neo and MCF7-SNCG were microinjected with goat IgG as a control. Injections were done at a constant flow setup by varying the injection pressure Pc between 40-70 units. The microscope stage was kept at 37° C. using thermal control device (Tempcontrol-37-2 Digital). Approximately 25-30 cells were microinjected in each experiment (n=3). Cells were quickly incubated to revive. […]
(§3) For the immunofluorescence experiments, cells were fixed in 0.5% buffered paraformaldehyde for 8 minutes at room temperature. […] Cells were scored by identifying cells containing Alexa Fluor 488 excited at 488 nm, and the emission measured at 500-535 nm; DAPI was excited at 345 nm and the emission was measured at 445 nm. […] Mitotic index was determined as described by Gupta et al. (Oncogene 2003 22:7593-7599) and Inaba et al. Breast Cancer Res. Treat. […]

MCF7-SNCG cells [2] = experiment: as above; conditions: ANK peptide microinjected, 0.5 μM nocodazole for 24 hours; versus uninjected
Experimental: as §1, §2, §3

MCF7-SNCG cells [3] = experiment: Mitotic index and apoptosis by DAPI staining after paclitaxel; conditions: SNCG cells expressing EGFP-ANK versus pEGFP, paclitaxel 18 hours
Experimental: (§4) FIG. 7A through D show expression of EGFP-ANK disrupting the SNCG-mediated inhibition of mitotic checkpoint function as measured by microscopy and flow cytometry. The bar graphs show the expression of EGFP-ANK disrupting the SNCG-mediated inhibition of mitotic checkpoint function, using (FIG. 7A) DAPI and (FIG. 7B) anti-phospho-H^3 staining. For graphs of FIGS. 7A and 7B, the cells treated with 0.5 μM paclitaxel for 18 hours or untreated control cells were fixed with 4% paraformaldehyde for 20 minutes at room temperature. In both cases, the cells were then stained with 1 μg/ml of DAPI or 2 μg/ml anti-phospho-H3 primary and Texas Red goat anti-rabbit secondary antibodies (Invitrogen). Green fluorescent cells were identified for positive transfected cells. For each sample, 200-300 cells randomly chosen from 5 different views under a Nikon fluorescent microscope were scored for interphase, mitotic, or apoptotic based upon nuclei morphology. The data shown were derived from three separate transfections (p<0.01). […]
(§5) Two days after transfection, cells were exposed to paclitaxel for 18 hours and numbers of mitotic arrested and apoptotic cells were counted after DAPI staining. […] These cells were also probed with rabbit polyclonal anti-phospho-H^3 and the mitotic index was calculated according to the proportion of the number of H^3 stained EGFP positive cells to total EGFP positive cells (FIG. 7B). […]

MCF7-Neo cells [4] = experiment: as above; conditions: neo cells expressing EGFP-ANK versus pEGFP, paclitaxel 18 hours
Experimental: as §4, §5

Compound | number of cells undergoing mitotic arrest/apoptosis (MCF7-Neo cells [1]) | level of mitotically arrested cells (MCF7-SNCG cells [2]) | increase in the number of mitotic arrested cells (MCF7-SNCG cells [3]) [fold] | mitotic index (MCF7-Neo cells [4]) | percentage of apoptotic cells (MCF7-Neo cells [4])
CC[C@H](C)[C@H](NC(=O)[C@H](CS)NC(=O)CNC(=O)[C@H](CC(C)C)NC(=O)[C@H](Cc1c[nH]cn1)NC(=O)CNC(=O)[C@H](Cc1c[nH]cn1)NC(=O)[C@H](CCC(N)=O)NC(=O)[C@H](CO)NC(=O)[C@H](C)NC(=O)[C@@H](NC(=O)[C@H](Cc1c[nH]cn1)NC(=O)[C@H](CC(C)C)NC(=O)[C@H](C)NC(=O)[C@H](CO)NC(=O)[C@H](CC(N)=O)NC(=O)CNC(=O)[C@H](CCCCN)NC(C)=O)C(C)C)C(=O)N[C@@H](CCC(N)=O)C(=O)N[C@H](C(=O)N[C@@H](CC(C)C)C(=O)N[C@H](C(=O)N[C@@H](CCCNC(=N)N)C(=O)N[C@@H](Cc1ccc(O)cc1)C(=O)NCC(=O)N[C@@H](C)C(=O)N[C@@H](CC(N)=O)C(=O)N[C@H](C(=O)N[C@H](C(=O)N[C@@H](CCSC)C(=O)N[C@@H](CCC(N)=O)C(=O)N[C@@H](CC(N)=O)C(=O)N[C@@H](Cc1c[nH]cn1)C(=O)NCC(N)=O)[C@@H](C)O)C(C)C)C(C)C)[C@@H](C)O [ANK peptide] (Ac-KGNSALHVASQHGHLGCIQTLVRYGANVTMQNHG-NH2) | not significantly affected | significantly (p<0.05) increased | – | – | –
EGFP-ANK: ANK peptide expressed as a fusion protein with its amino-terminal linked to EGFP protein, approximately 37 kDa ({EGFP}-KGNSALHVASQHGHLGCIQTLVRYGANVTMQNHG) | – | – | ~2 | did not significantly alter | did not significantly alter
